Molecules are shown by their SMILES. Read-outs that look alike come from different tables or passages of the source.

The subject of assay [1] is laying hens. In words: Anovulatory Activity (EPI): egg production of prime laying hens fed medicated diet. As to conditions: Gallus gallus, 192 h, read-out: EPI: Egg Production Index, % of control egg production for days 5 through 8. The class given is in vivo, laying hens (chicken). As for the experimental part: Anovulatory Activity--(EPI)
Prime laying hens (7-12 months), whose egg production has been documented during the preceding 2 weeks, are fed diet containing medication at 100 ppm for 8 days. Egg production is recorded for days 5 through 8 while the birds are on test, and the Egg Production Index (EPI) is calculated as the % of control egg production for days 5 through 8 inclusive after start of oral medication at 100 ppm.
**Egg Production Index, % of control egg production for days 5 through 8
inclusive after start of oral medication at 100 ppm

Assay [2] deals with laying hens. Briefly: Antigonadal Activity (ED20): ovarian weight of prime laying hens fed medicated diet for one week. The note with it: medicated diet for seven days, based on at least 8 hens at 2 dose levels. The format is in vivo, laying hens (chicken). As for the experimental part:
Antigonadal Activity--(ED20)
Prime laying hens (7-12 months), whose egg production has been documented during the preceding 2 weeks, are fed medicated diet for one week at various dose levels. At the conclusion of the one week test, the hens are sacrificed and their reproductive system is excised, examined and weighed. The seven day medication level producing a 20 g ovarian weight, based on at least 8 hens at 2 dose levels is calculated and recorded as ED20.
*Seven day medication level producing a 20 g ovarian weight in laying hen
(based on at least 8 hens at 2 dose levels)

As for `Cc1cc(C)c(N=C2NCCN2)c(C)c1` [compound 6, 2-(2,4,6-Trimethylphenylimino)imidazolidine], the response vs control in vivo at 100 ppm, 100 µg/mL with laying hens [1] (po) amounted to 31%. For the same compound, the “ED20: seven day medication level producing a 20 g ovarian weight in laying hen” value (“ED20 … in laying hen” for short) in the assay on laying hens [2] was found to be 54 ppm.

In the case of `Cc1cccc(C)c1N=C1NCCN1` [compound 1, 2-(2,6-dimethylphenylimino)imidazolidine], the response vs control in vivo at 100 ppm, 100 µg/mL in the assay with laying hens [1] (po) was 18%. In the assay on laying hens [2], the “ED20 … in laying hen” value was 38 ppm.

With `CCc1ccccc1N=C1NCCN1` [compound 10], the response vs control in vivo at 100 ppm, 100 µg/mL in the assay with laying hens [1] (po) was 31%. Moreover, the “ED20 … in laying hen” value with laying hens [2] stood at 83 ppm.

`Cc1ccc(F)cc1N=C1NCCN1` [compound 8, 2-(5-fluoro-2-methylphenylimino)imidazolidine]: in the assay with laying hens [1] (po), the response vs control in vivo at 100 ppm, 100 µg/mL was found to be 24%. Moreover, the “ED20 … in laying hen” value in the assay with laying hens [2] was determined as 67 ppm.

As to `Cc1ccc(N=C2NCCN2)c(C)c1` [compound 4], in the assay with laying hens [1] (po), the response vs control in vivo at 100 ppm, 100 µg/mL was 24%. Further, the “ED20 … in laying hen” value with laying hens [2] was found to be 50 ppm.

With `Clc1ccccc1N=C1NCCN1` [compound 13, 2-(2-chlorophenylimino)imidazolidine], the response vs control in vivo at 100 ppm, 100 µg/mL in the assay with laying hens [1] (po) was found to be 31%. In addition, the “ED20 … in laying hen” value in the assay on laying hens [2] is listed as 217 ppm.

As for `Cc1cccc(Cl)c1N=C1NCCN1` [compound 3, 2-(6-chloro-2-methylphenylimino)imidazolidine], the response vs control in vivo at 100 ppm, 100 µg/mL with laying hens [1] (po) came out at 16%. Moreover, the “ED20 … in laying hen” value in the assay on laying hens [2] is given as 40 ppm.

For `Clc1cccc(Cl)c1N=C1NCCN1` [compound 15], in the assay on laying hens [1] (hens, oral medication in diet at 100 ppm for 8 days, days 5 through 8 inclusive), the response vs control in vivo at 100 ppm, 100 µg/mL was found to be 70%. For the same compound, the “ED20 … in laying hen” value in the assay with laying hens [2] worked out at 400 ppm.

For `Cc1ccc(C)c(N=C2NCCN2)c1` [compound 14], the response vs control in vivo at 100 ppm, 100 µg/mL with laying hens [1] (po) turned out to be 70%. Moreover, the “ED20 … in laying hen” value in the assay on laying hens [2] was 250 ppm.

Take `Cc1cccc(N=C2NCCN2)c1C` [compound 12]: the response vs control in vivo at 100 ppm, 100 µg/mL in the assay on laying hens [1] (po) amounted to 86%. In addition, the “ED20 … in laying hen” value in the assay on laying hens [2] was 181 ppm.

In the case of `Cc1c(Cl)cccc1N=C1NCCN1` [compound 2, 2-(3-chloro-2-methylphenylimino)imidazolidine], the response vs control in vivo at 100 ppm, 100 µg/mL in the assay on laying hens [1] (po) is 26%. The “ED20 … in laying hen” value in the assay with laying hens [2] was determined as 38 ppm.

Turning to `Cc1cc(Br)ccc1N=C1NCCN1` [compound 7], in the assay with laying hens [1] (po), the response vs control in vivo at 100 ppm, 100 µg/mL came to 24%. The “ED20 … in laying hen” value in the assay on laying hens [2] came out at 56 ppm.

`CCc1cccc(CC)c1N=C1NCCN1` [compound 11]: the response vs control in vivo at 100 ppm, 100 µg/mL in the assay on laying hens [1] (po) came out at 31%. In addition, the “ED20 … in laying hen” value in the assay with laying hens [2] was 151 ppm.

`Cc1cc(Cl)ccc1N=C1NCCN1` [compound 5, 2-(4-chloro-2-methylphenylimino)imidazolidine]: the response vs control in vivo at 100 ppm, 100 µg/mL in the assay with laying hens [1] (po) came out at 24%. Also, the “ED20 … in laying hen” value in the assay on laying hens [2] is listed as 53 ppm.

In the case of `Cc1ccccc1N=C1NCCN1` [compound 9], the response vs control in vivo at 100 ppm, 100 µg/mL in the assay on laying hens [1] (po) turned out to be 8%. For the same compound, the “ED20 … in laying hen” value in the assay with laying hens [2] stood at 69 ppm.

The values are drawn from patent publication US4287201A, “Anovulatory method and chicken feed compositions” (Merck & Co., Inc., priority 1980, dated 1981).
